Data published in ChEMBL document CHEMBL6103613 (J Med Chem, 2025).
≈ marks a conversion by molar mass, not a printed value. Calls of active or inactive are those of the source. No cut-off for these calls is given here.

Experiments:
[1] = Toxicity in mouse assessed as change in food intake at 50 mg/kg, ip measured for 7 days; assay type: organism-based; details: in vivo, 168 h, time 7 day
[2] = Toxicity in mouse assessed as heart damage at 50 mg/kg, ip measured for 7 days by H and E staining based analysis; assay type: organism-based; details: in vivo, 168 h, time 7 day
Staphylococcus aureus [3] = assay: Antimicrobial activity against Staphylococcus aureus incubated for 0.5 hrs in presence of Ca2+; assay type: functional, organism-based
Staphylococcus aureus [4] = assay: Antimicrobial activity against Staphylococcus aureus incubated for 0.5 hrs in presence of NA+; assay type: functional, organism-based
Staphylococcus aureus [5] = assay: Inhibition of biofilm formation in Staphylococcus aureus at 1 to 16 times MIC by hochest33342/PI staining based analysis; assay type: functional
[6] = Toxicity in mouse assessed as lung damage at 50 mg/kg, ip measured for 7 days by H and E staining based analysis; assay type: organism-based; details: in vivo, 168 h, time 7 day
Staphylococcus aureus [7] = assay: Antimicrobial activity against Staphylococcus aureus ATCC 25923 incubated for 1 hr in presence of PE; assay type: functional
[8] = Toxicity in mouse assessed as change in body weight gain at 50 mg/kg, ip measured for 7 days; assay type: organism-based; details: in vivo, 168 h, time 7 day
Staphylococcus aureus [9] = assay: Antimicrobial activity against Staphylococcus aureus incubated for 0.5 hrs in presence of Fe3+; assay type: functional, organism-based
Staphylococcus aureus [10] = assay: Antibiofilm activity in Staphylococcus aureus assessed as biofilm eradication at 4 times MIC relative to control; assay type: functional
[11] = Hemolytic activity against mouse Red blood cells at 100 microg/ml incubated for 1 hr relative to control; assay type: toxicity, cell-based, Erythrocyte; details: at 100 µg/mL, read-out: Activity
[12] = Toxicity in kunming mouse assessed as effect on lung morphology at 5 mg/kg, ip; assay type: organism-based; details: in vivo
Staphylococcus aureus [13] = assay: Upregulation of SgtB expression in Staphylococcus aureus at 12.5 microg/ml incubated for 3 hrs by RNA sequencing analysis; assay type: functional; details: dose 12.5 µg/ml
Staphylococcus aureus [14] = assay: Antimicrobial activity against methicillin-resistant Staphylococcus aureus clinical isolate 4 assessed as inhibition of visible bacterial growth incubated for 18 hrs by CLSI based analysis; assay type: functional
Staphylococcus aureus [15] = assay: Upregulation of Mnh1 expression in Staphylococcus aureus at 12.5 microg/ml incubated for 3 hrs by RNA sequencing analysis; assay type: functional; details: dose 12.5 µg/ml
Staphylococcus aureus [16] = assay: Antibacterial activity against methicillin-resistant Staphylococcus aureus infected in kunming mouse keratitis model measured upto 24 hrs; assay type: functional, organism-based
Enterococcus gallinarum = assay: Antimicrobial activity against Enterococcus gallinarum ATCC 49573 assessed as inhibition of visible bacterial growth incubated for 18 hrs by CLSI based analysis; assay type: functional
Staphylococcus aureus [17] = assay: Antimicrobial activity against Staphylococcus aureus incubated for 0.5 hrs in presence of Fe2+; assay type: functional, organism-based
Staphylococcus aureus [18] = assay: Antibacterial activity against methicillin-resistant Staphylococcus aureus infected in kunming mouse pneumonia model assessed as decrease in IL-10 expression in lung at 5 mg/kg, ip measured upto 8 days; assay type: functional, organism-based; details: time <= 8.0 day
Staphylococcus aureus [19] = assay: Induction of ROS production in Staphylococcus aureus assessed as increase in fluorescence intensity at 2 times MIC by DCFH-DA probe based assay; assay type: functional, organism-based
Staphylococcus aureus [20] = assay: Upregulation of dltD expression in Staphylococcus aureus at 12.5 microg/ml incubated for 3 hrs by RNA sequencing analysis; assay type: functional; details: dose 12.5 µg/ml
Staphylococcus aureus [21] = assay: Antibacterial activity against methicillin-resistant Staphylococcus aureus infected in kunming mouse peritonitis model assessed as reduction in bacterial colonies in blood at 5 mg/kg, ip measured upto 8 days; assay type: functional, organism-based; details: time <= 8.0 day
Staphylococcus aureus [22] = assay: Upregulation of superoxide dismutase expression in Staphylococcus aureus at 12.5 microg/ml incubated for 3 hrs by RNA sequencing analysis; assay type: functional; details: dose 12.5 µg/ml
Staphylococcus aureus [23] = assay: Antimicrobial activity against Staphylococcus aureus incubated for 0.5 hrs in presence of Mg+; assay type: functional, organism-based
[24] = Toxicity in mouse assessed as kidney damage at 50 mg/kg, ip measured for 7 days by H and E staining based analysis; assay type: organism-based; details: in vivo, 168 h, time 7 day
Staphylococcus aureus [25] = assay: Upregulation of CwrA expression in Staphylococcus aureus at 12.5 microg/ml incubated for 3 hrs by RNA sequencing analysis; assay type: functional; details: dose 12.5 µg/ml
Staphylococcus aureus [26] = assay: Upregulation of fmtA expression in Staphylococcus aureus at 12.5 microg/ml incubated for 3 hrs by RNA sequencing analysis; assay type: functional; details: dose 12.5 µg/ml
Staphylococcus aureus [27] = assay: Antimicrobial activity against Staphylococcus aureus at pH 5.4 to 6.4 incubated for 0.5 hrs; assay type: functional, organism-based
Staphylococcus aureus [28] = assay: Antimicrobial activity against methicillin-resistant Staphylococcus aureus clinical isolate 3 assessed as inhibition of visible bacterial growth incubated for 18 hrs by CLSI based analysis; assay type: functional
Staphylococcus aureus [29] = assay: Antibacterial activity against methicillin-resistant Staphylococcus aureus infected in kunming mouse pneumonia model assessed as decrease in TNF-alpha expression in lung at 5 mg/kg, ip measured upto 8 days; assay type: functional, organism-based; details: time <= 8.0 day
Staphylococcus aureus [30] = assay: Antimicrobial activity against methicillin-resistant Staphylococcus aureus clinical isolate 2 assessed as inhibition of visible bacterial growth incubated for 18 hrs by CLSI based analysis; assay type: functional
Staphylococcus aureus [31] = assay: Antibacterial activity against methicillin-resistant Staphylococcus aureus infected in kunming mouse pneumonia model assessed as reduction in colony count in lung at 5 mg/kg, ip measured upto 8 days; assay type: functional, organism-based; details: time <= 8.0 day
Enterococcus faecium = assay: Antimicrobial activity against vancomycin-resistant Enterococcus faecium assessed as inhibition of visible bacterial growth incubated for 18 hrs by CLSI based analysis; assay type: functional
Staphylococcus aureus [32] = assay: Inhibition of biofilm formation in Staphylococcus aureus at 1 to 16 times MIC by crystal violet staining based analysis; assay type: functional
Peptidoglycan [33] = assay: Binding affinity to Staphylococcus aureus peptidoglycan assessed as dissociation constant by ITC analysis
Staphylococcus aureus [34] = assay: Antimicrobial activity against Staphylococcus aureus incubated for 0.5 hrs in presence of K+; assay type: functional, organism-based
[35] = Stability of compound in mouse serum measured after 24 hrs; assay type: ADME, cell-free
Cell membrane = assay: Disruption of cell membrane integrity in Staphylococcus aureus at 4 times of MIC incubated for 30 mins by Propidium iodide staining based analysis; assay type: subcellular
[36] = Toxicity in mouse assessed as liver damage at 50 mg/kg, ip measured for 7 days by H and E staining based analysis; assay type: organism-based; details: in vivo, 168 h, time 7 day
Staphylococcus aureus [37] = assay: Upregulation of ahpF expression in Staphylococcus aureus at 12.5 microg/ml incubated for 3 hrs by RNA sequencing analysis; assay type: functional; details: dose 12.5 µg/ml
Staphylococcus aureus [38] = assay: Upregulation of TarF expression in Staphylococcus aureus at 12.5 microg/ml incubated for 3 hrs by RNA sequencing analysis; assay type: functional; details: dose 12.5 µg/ml
Staphylococcus aureus [39] = assay: Antibacterial activity against methicillin-resistant Staphylococcus aureus infected in kunming mouse peritonitis model assessed as reduction in bacterial colonies in spleen at 5 mg/kg, ip measured upto 8 days; assay type: functional, organism-based; details: time <= 8.0 day
Staphylococcus aureus [40] = assay: Antibacterial activity against methicillin-resistant Staphylococcus aureus infected in kunming mouse peritonitis model assessed as reduction in bacterial colonies in kidney at 5 mg/kg, ip measured upto 8 days; assay type: functional, organism-based; details: time <= 8.0 day
Peptidoglycan [41] = assay: Binding affinity to Staphylococcus aureus peptidoglycan assessed as change in enthalpy by ITC analysis
Staphylococcus aureus [42] = assay: Antimicrobial activity against Staphylococcus aureus ATCC 25923 incubated for 1 hr in presence of PG; assay type: functional
Staphylococcus aureus [43] = assay: Upregulation of thiol peroxidase expression in Staphylococcus aureus at 12.5 microg/ml incubated for 3 hrs by RNA sequencing analysis; assay type: functional, organism-based; details: dose 12.5 µg/ml
Staphylococcus aureus [44] = assay: Antimicrobial activity against methicillin-resistant Staphylococcus aureus ATCC 43300 assessed as inhibition of visible bacterial growth incubated for 18 hrs by CLSI based analysis; assay type: functional
Staphylococcus aureus [45] = assay: Antimicrobial activity against Staphylococcus aureus assessed as reduction in bacterial growth at 2 times MIC incubated for 2 hrs by time-killing assay; assay type: functional; design: scale not given: the % may be the effect or the level left

Q: With `CC(C)[C@@H]1NC(=O)[C@@H](C(C)C)NC(=O)[C@H](C(C)C)NC(=O)[C@@H](CCCCN)NC(=O)[C@H](Cc2c(C(c3ccccc3)(c3ccccc3)c3ccccc3)[nH]c3ccccc23)NC(=O)[C@@H](C(C)C)NC(=O)[C@@H]2CSC1N2` as the molecule, how does the Activity [1] read?
A: Its Activity is “Non-toxic”.

Q: And the Activity [2]?
A: Its Activity is “Non-toxic”.

Q: What about the Activity (Staphylococcus aureus [3]) of the same molecule?
A: The Activity was “Active”.

Q: And the Activity (Staphylococcus aureus [4])?
A: Its Activity is “Active”.

Q: And the “inhibition (INH)” value (Staphylococcus aureus [5])?
A: The value was about 100%.

Q: What about the Activity [6] of the same molecule?
A: The Activity was “Non-toxic”.

Q: What about the MIC (Staphylococcus aureus [7]) of the same molecule?
A: The MIC was over 50 µg/mL.

Q: What about the Activity [8] of the same molecule?
A: Its Activity is “Non-toxic”.

Q: And the Activity (Staphylococcus aureus [9])?
A: Its Activity is “Active”.

Q: And the Activity (Staphylococcus aureus [10])?
A: Its Activity is 40%.

Q: What about the hemolysis at 1 h, 100 microg/ml [11] of the same molecule?
A: Its hemolysis at 1 h, 100 microg/ml is under 5%.

Q: What about the Activity [12] of the same molecule?
A: The Activity was “Non-toxic”.

Q: What about the Activity (Staphylococcus aureus [13]) of the same molecule?
A: The Activity was “Active”.

Q: And the MIC (Staphylococcus aureus [14])?
A: The MIC was 6.25 µg/mL (≈ 6.01 µM).

Q: And the Activity (Staphylococcus aureus [15])?
A: The Activity was “Active”.

Q: And the Activity (Staphylococcus aureus [16])?
A: The Activity was “Active”.

Q: What about the MIC (Enterococcus gallinarum) of the same molecule?
A: The MIC was 12.5 µg/mL (≈ 12 µM).

Q: What about the Activity (Staphylococcus aureus [17]) of the same molecule?
A: The Activity was “Active”.

Q: And the Activity (Staphylococcus aureus [18])?
A: Its Activity is “Active”.

Q: What about the Activity (Staphylococcus aureus [19]) of the same molecule?
A: Its Activity is “Active”.

Q: What about the Activity (Staphylococcus aureus [20]) of the same molecule?
A: The Activity was “Active”.

Q: And the Activity (Staphylococcus aureus [21])?
A: Its Activity is “Active”.

Q: And the Activity (Staphylococcus aureus [22])?
A: Its Activity is “Active”.

Q: And the Activity (Staphylococcus aureus [23])?
A: The Activity was “Active”.

Q: What about the Activity [24] of the same molecule?
A: Its Activity is “Non-toxic”.

Q: What about the Activity (Staphylococcus aureus [25]) of the same molecule?
A: The Activity was “Active”.

Q: And the Activity (Staphylococcus aureus [26])?
A: Its Activity is “Active”.

Q: And the Activity (Staphylococcus aureus [27])?
A: Its Activity is “Active”.

Q: What about the MIC (Staphylococcus aureus [28]) of the same molecule?
A: The MIC was 12.5 µg/mL (≈ 12 µM).

Q: And the Activity (Staphylococcus aureus [29])?
A: Its Activity is “Active”.

Q: What about the MIC (Staphylococcus aureus [30]) of the same molecule?
A: The MIC was 6.25 µg/mL (≈ 6.01 µM).

Q: And the Activity (Staphylococcus aureus [31])?
A: The Activity was “Active”.

Q: What about the MIC (Enterococcus faecium) of the same molecule?
A: Its MIC is 12.5 µg/mL (≈ 12 µM).

Q: What about the “inhibition (INH)” value (Staphylococcus aureus [32]) of the same molecule?
A: Its value is about 100%.

Q: What about the Kd (Peptidoglycan [33]) of the same molecule?
A: The Kd was 615 nM.

Q: And the Activity (Staphylococcus aureus [34])?
A: The Activity was “Active”.

Q: And the Stability [35]?
A: Its Stability is “Stable”.

Q: And the Activity (Cell membrane)?
A: The Activity was 46.7%.

Q: And the Activity [36]?
A: Its Activity is “Non-toxic”.

Q: What about the Activity (Staphylococcus aureus [37]) of the same molecule?
A: Its Activity is “Active”.

Q: What about the Activity (Staphylococcus aureus [38]) of the same molecule?
A: The Activity was “Active”.

Q: What about the Activity (Staphylococcus aureus [39]) of the same molecule?
A: Its Activity is “Active”.

Q: What about the Activity (Staphylococcus aureus [40]) of the same molecule?
A: The Activity was “Active”.

Q: What about the deltaH (Peptidoglycan [41]) of the same molecule?
A: Its deltaH is 0.925 kcal/mol.

Q: And the MIC (Staphylococcus aureus [42])?
A: The MIC was over 50 µg/mL.

Q: What about the Activity (Staphylococcus aureus [43]) of the same molecule?
A: The Activity was “Active”.

Q: What about the MIC (Staphylococcus aureus [44]) of the same molecule?
A: Its MIC is 6.25 µg/mL (≈ 6.01 µM).

Q: And the Activity (Staphylococcus aureus [45])?
A: The Activity was over 99%.
